Measured values: ChEMBL document CHEMBL5321219, “Selective degradation of cellular BRD3 and BRD4-L promoted by PROTAC molecules in six cancer cell lines” (Eur J Med Chem, 2023)
pIC50, pKi: −log10 of the molar value. Calls of active or inactive are those of the source. No cut-off for these calls is given here.

What was measured:
[1] = biological target: T1, Bromodomain-containing protein 3 (Homo sapiens, UniProt Q15059); test: Binding affinity to recombinant human BRD3 BD1 (24 to 144 residues) assessed as inhibition constant by fluorescence polarization binding assay
T1 sequence (Q15059 whole entry, the tested form may be a part): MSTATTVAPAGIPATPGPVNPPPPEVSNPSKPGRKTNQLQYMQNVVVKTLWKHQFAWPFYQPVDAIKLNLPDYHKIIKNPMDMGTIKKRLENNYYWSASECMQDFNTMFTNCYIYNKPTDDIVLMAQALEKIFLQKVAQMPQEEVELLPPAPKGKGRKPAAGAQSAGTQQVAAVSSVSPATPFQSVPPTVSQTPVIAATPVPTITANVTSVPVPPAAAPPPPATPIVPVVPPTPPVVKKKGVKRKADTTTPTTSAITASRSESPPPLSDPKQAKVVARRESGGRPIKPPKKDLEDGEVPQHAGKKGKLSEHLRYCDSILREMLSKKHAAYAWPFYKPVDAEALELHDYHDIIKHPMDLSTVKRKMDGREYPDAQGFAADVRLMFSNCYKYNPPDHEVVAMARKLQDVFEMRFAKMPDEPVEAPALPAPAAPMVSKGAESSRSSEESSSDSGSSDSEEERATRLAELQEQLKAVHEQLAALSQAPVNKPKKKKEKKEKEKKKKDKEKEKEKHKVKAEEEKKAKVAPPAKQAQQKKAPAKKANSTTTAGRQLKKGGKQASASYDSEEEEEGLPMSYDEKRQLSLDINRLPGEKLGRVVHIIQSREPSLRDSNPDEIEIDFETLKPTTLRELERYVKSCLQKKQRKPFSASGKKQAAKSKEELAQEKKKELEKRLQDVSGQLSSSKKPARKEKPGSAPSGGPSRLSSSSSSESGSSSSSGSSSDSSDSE

[2] = biological target: T2, Protein cereblon/Bromodomain-containing protein 4 (Homo sapiens) (UniProt O60885+Q96SW2); test: PROTAC activity at CRBN/BRD4-L in human MM1.S cells assessed as induction of protein degradation at 2 nM measured after 24 hrs by Western blot analysis; assay type: cell-based
T2 sequence (Q96SW2 whole entry, looked up, other chains not shown): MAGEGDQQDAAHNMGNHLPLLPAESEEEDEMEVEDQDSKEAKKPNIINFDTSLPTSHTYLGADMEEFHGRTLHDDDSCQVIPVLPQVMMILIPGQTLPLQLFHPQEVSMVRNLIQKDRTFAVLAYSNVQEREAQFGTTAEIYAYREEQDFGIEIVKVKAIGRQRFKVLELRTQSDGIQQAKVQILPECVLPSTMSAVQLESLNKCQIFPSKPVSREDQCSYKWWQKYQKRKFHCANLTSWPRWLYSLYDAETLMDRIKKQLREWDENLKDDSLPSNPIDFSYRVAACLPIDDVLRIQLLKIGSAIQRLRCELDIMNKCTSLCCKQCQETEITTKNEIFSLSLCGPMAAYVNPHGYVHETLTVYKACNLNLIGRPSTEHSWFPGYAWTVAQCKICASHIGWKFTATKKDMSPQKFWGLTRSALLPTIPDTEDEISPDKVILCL

[3] = biological target: T3, Protein cereblon/Bromodomain-containing protein 3 (Homo sapiens) (UniProt Q15059+Q96SW2); test: PROTAC activity at CRBN/BRD3 in human MM1.S cells assessed as induction of protein degradation at 2 nM measured after 24 hrs by Western blot analysis; assay type: cell-based
T3 sequence (Q15059 2-726 limits assumed): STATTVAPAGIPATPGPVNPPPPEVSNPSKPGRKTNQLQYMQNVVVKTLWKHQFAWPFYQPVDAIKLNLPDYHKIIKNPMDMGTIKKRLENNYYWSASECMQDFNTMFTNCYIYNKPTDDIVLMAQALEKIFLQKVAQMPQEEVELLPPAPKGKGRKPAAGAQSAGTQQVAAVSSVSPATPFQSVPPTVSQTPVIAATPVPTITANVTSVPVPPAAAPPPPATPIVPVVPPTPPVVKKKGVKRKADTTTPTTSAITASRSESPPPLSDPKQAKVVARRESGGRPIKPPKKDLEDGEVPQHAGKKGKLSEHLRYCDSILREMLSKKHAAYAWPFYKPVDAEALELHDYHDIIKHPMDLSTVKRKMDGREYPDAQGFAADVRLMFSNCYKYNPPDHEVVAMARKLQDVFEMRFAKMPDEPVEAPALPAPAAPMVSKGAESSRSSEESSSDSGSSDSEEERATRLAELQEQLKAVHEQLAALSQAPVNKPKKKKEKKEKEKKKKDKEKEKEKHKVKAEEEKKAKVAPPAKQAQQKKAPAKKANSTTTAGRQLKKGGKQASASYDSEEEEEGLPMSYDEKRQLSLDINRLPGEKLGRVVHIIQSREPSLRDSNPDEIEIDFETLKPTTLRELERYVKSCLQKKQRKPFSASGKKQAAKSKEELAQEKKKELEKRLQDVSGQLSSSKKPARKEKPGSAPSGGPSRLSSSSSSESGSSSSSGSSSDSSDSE
T3 sequence (Q96SW2 whole entry partner): as the sequence (Q96SW2 whole entry, looked up, other chains not shown) above

[4] = system: MV4-11; test: Antiproliferative activity against human MV4-11 cells assessed as cell growth inhibition measured after 3 days by CellTitre-Glo assay; assay type: functional, cell-based; details: MV4-11, 72 h
[5] = system: MM1.S; test: Antiproliferative activity against human MM1.S cells assessed as cell growth inhibition measured after 4 days by CellTitre-Glo assay; assay type: functional, cell-based; details: 96 h
[6] = biological target: T1, Bromodomain-containing protein 3; test: Binding affinity to recombinant human BRD3 BD2 (306 to 417 residues) assessed as inhibition constant by fluorescence polarization binding assay
[7] = biological target: T2, Protein cereblon/Bromodomain-containing protein 4 (Homo sapiens); test: PROTAC activity at CRBN/BRD4-S in human MM1.S cells assessed as induction of protein degradation at 2 to 10 nM measured after 24 hrs by Western blot analysis; assay type: cell-based; details: dose 2-10 nM
[8] = biological target: T3, Protein cereblon/Bromodomain-containing protein 3 (Homo sapiens); test: PROTAC activity at CRBN/BRD3 in human MM1.S cells assessed as induction of protein degradation at 2 to 10 nM measured after 24 hrs by Western blot analysis; assay type: cell-based; details: dose 2-10 nM
[9] = biological target: T2, Protein cereblon/Bromodomain-containing protein 4 (Homo sapiens); test: PROTAC activity at CRBN/BRD4-L in human MM1.S cells assessed as induction of protein degradation at 2 to 10 nM measured after 24 hrs by Western blot analysis; assay type: cell-based; details: dose 2-10 nM
[10] = biological target: T4, Protein cereblon/Bromodomain-containing protein 2 (Homo sapiens) (UniProt P25440+Q96SW2); test: PROTAC activity at CRBN/BRD2 in human MM1.S cells assessed as induction of protein degradation at 2 to 10 nM measured after 24 hrs by Western blot analysis; assay type: cell-based; details: dose 2-10 nM
T4 sequence (P25440 whole entry, looked up): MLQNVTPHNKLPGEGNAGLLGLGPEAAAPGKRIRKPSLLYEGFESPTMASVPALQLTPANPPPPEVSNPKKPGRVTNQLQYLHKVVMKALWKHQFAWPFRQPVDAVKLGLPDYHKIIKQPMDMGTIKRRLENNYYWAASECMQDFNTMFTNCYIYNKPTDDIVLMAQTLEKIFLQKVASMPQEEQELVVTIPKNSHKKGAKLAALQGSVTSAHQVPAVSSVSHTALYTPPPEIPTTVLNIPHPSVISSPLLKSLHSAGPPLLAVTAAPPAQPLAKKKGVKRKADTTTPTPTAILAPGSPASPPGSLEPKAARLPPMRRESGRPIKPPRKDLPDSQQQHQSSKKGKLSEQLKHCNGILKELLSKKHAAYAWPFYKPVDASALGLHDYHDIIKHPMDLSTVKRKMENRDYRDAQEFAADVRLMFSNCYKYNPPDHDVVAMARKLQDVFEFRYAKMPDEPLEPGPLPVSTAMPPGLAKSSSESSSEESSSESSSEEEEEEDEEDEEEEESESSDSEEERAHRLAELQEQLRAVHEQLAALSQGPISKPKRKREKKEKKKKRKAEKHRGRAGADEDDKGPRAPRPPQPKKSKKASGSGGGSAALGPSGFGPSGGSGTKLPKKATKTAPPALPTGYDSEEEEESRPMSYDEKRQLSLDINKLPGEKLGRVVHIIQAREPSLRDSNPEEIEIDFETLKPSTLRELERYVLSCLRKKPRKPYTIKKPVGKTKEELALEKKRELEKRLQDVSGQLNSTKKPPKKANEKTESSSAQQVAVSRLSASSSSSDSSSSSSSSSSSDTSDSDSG
T4 sequence (Q96SW2 whole entry, looked up): as the sequence (Q96SW2 whole entry, looked up, other chains not shown) above

[11] = biological target: T3, Protein cereblon/Bromodomain-containing protein 3 (Homo sapiens); test: PROTAC activity at CRBN/BRD3 in human HeLa cells assessed as induction of protein degradation at […] measured after 24 hrs by Western blot analysis; assay type: cell-based; details: dose lower 1.0 µM
[12] = biological target: T3, Protein cereblon/Bromodomain-containing protein 3 (Homo sapiens); test: PROTAC activity at CRBN/BRD3 in human MV4-11 cells assessed as induction of protein degradation at 0.5 to 10 uM measured after 24 hrs by Western blot analysis; assay type: cell-based; details: dose 0.5-10 µM
[13] = biological target: T3, Protein cereblon/Bromodomain-containing protein 3 (Homo sapiens); test: PROTAC activity at CRBN/BRD3 in human MCF7 cells assessed as induction of protein degradation at 1 uM measured around 1 to 3 hrs by Western blot analysis; assay type: cell-based; details: time 1-3 hrs
[14] = biological target: T2, Protein cereblon/Bromodomain-containing protein 4 (Homo sapiens); test: PROTAC activity at CRBN/BRD4-L in human HeLa cells assessed as induction of protein degradation at 1 to 50 uM measured after 24 hrs by Western blot analysis; assay type: cell-based; details: dose 1-50 µM
[15] = biological target: T3, Protein cereblon/Bromodomain-containing protein 3 (Homo sapiens); test: PROTAC activity at CRBN/BRD3 in human HGC-27 cells assessed as induction of protein degradation at 1 uM measured around 1 to 3 hrs by Western blot analysis; assay type: cell-based; details: time 1-3 hrs
[16] = biological target: T2, Protein cereblon/Bromodomain-containing protein 4 (Homo sapiens); test: PROTAC activity at CRBN/BRD4-L in human MCF7 cells assessed as induction of protein degradation at 1 uM measured around 1 to 3 hrs by Western blot analysis; assay type: cell-based; details: time 1-3 hrs
[17] = biological target: T2, Protein cereblon/Bromodomain-containing protein 4 (Homo sapiens); test: PROTAC activity at CRBN/BRD4-S in human MM1.S cells assessed as induction of protein degradation at 1 uM measured after 1 to 24 hrs by Western blot analysis; assay type: cell-based; details: time 1-24 hrs
[18] = biological target: T2, Protein cereblon/Bromodomain-containing protein 4 (Homo sapiens); test: PROTAC activity at CRBN/BRD4-L in human MV4-11 cells assessed as induction of protein degradation at 0.5 to 10 uM measured after 24 hrs by Western blot analysis; assay type: cell-based; details: dose 0.5-10 µM
[19] = system: HGC-27; test: Antiproliferative activity against human HGC-27 cells assessed as cell growth inhibition measured after 4 days by CCK-8 assay; assay type: functional, cell-based; details: HGC-27, 96 h
[20] = biological target: T2, Protein cereblon/Bromodomain-containing protein 4 (Homo sapiens); test: PROTAC activity at CRBN/BRD4-S in human MV4-11 cells assessed as induction of protein degradation at 0.5 to 10 uM measured after 24 hrs by Western blot analysis; assay type: cell-based; details: dose 0.5-10 µM
[21] = system: A549; test: Antiproliferative activity against human A549 cells assessed as cell growth inhibition measured after 4 days by CCK-8 assay; assay type: functional, cell-based; details: A549, 96 h
[22] = biological target: T3, Protein cereblon/Bromodomain-containing protein 3 (Homo sapiens); test: PROTAC activity at CRBN/BRD3 in human MCF7 cells assessed as induction of protein degradation at 1 to 50 uM measured after 24 hrs by Western blot analysis; assay type: cell-based; details: dose 1-50 µM
[23] = biological target: T4, Protein cereblon/Bromodomain-containing protein 2 (Homo sapiens); test: PROTAC activity at CRBN/BRD2 in human MCF7 cells assessed as induction of protein degradation at 1 uM measured around 1 to 3 hrs by Western blot analysis; assay type: cell-based; details: time 1-3 hrs
[24] = biological target: T3, Protein cereblon/Bromodomain-containing protein 3 (Homo sapiens); test: PROTAC activity at CRBN/BRD3 in human MM1.S cells assessed as induction of protein degradation measured after 24 hrs by Western blot analysis; assay type: cell-based
[25] = biological target: T2, Protein cereblon/Bromodomain-containing protein 4 (Homo sapiens); test: PROTAC activity at CRBN/BRD4-L in human MM1.S cells assessed as induction of protein degradation measured after 24 hrs by Western blot analysis; assay type: cell-based
[26] = system: HepG2; test: Antiproliferative activity against human HepG2 cells assessed as cell growth inhibition measured after 4 days by CCK-8 assay; assay type: functional, cell-based; details: HepG2, 96 h
[27] = biological target: T2, Protein cereblon/Bromodomain-containing protein 4 (Homo sapiens); test: PROTAC activity at CRBN/BRD4-L in human MCF7 cells assessed as induction of protein degradation at 1 to 50 uM measured after 24 hrs by Western blot analysis; assay type: cell-based; details: dose 1-50 µM
[28] = system: MCF7; test: Antiproliferative activity against human MCF7 cells assessed as cell growth inhibition measured after 4 days by CCK-8 assay; assay type: functional, cell-based; details: MCF7, 96 h
[29] = system: MM1.S; test: Downregulation of c-Myc expression in human MM1.S cells at 1 uM measured after 1 to 24 hrs by Western blot analysis; assay type: functional, cell-based; details: time 1-24 hrs
[30] = biological target: T3, Protein cereblon/Bromodomain-containing protein 3 (Homo sapiens); test: PROTAC activity at CRBN/BRD3 in human MM1.S cells assessed as induction of protein degradation at 1 uM measured around 1 to 3 hrs by Western blot analysis; assay type: cell-based; details: time 1-3 hrs
[31] = biological target: T4, Protein cereblon/Bromodomain-containing protein 2 (Homo sapiens); test: PROTAC activity at CRBN/BRD2 in human MV4-11 cells assessed as induction of protein degradation at 0.5 to 10 uM measured after 24 hrs by Western blot analysis; assay type: cell-based; details: dose 0.5-10 µM
[32] = biological target: T2, Protein cereblon/Bromodomain-containing protein 4 (Homo sapiens); test: PROTAC activity at CRBN/BRD4-L in human MM1.S cells assessed as induction of protein degradation at 1 uM measured around 1 to 3 hrs by Western blot analysis; assay type: cell-based; details: time 1-3 hrs
[33] = system: HeLa; test: Antiproliferative activity against human HeLa cells assessed as cell growth inhibition measured after 4 days by CCK-8 assay; assay type: functional, cell-based; details: 96 h
[34] = biological target: T3, Protein cereblon/Bromodomain-containing protein 3 (Homo sapiens); test: PROTAC activity at CRBN/BRD3 in human MM1.S cells assessed as induction of protein degradation at 1 uM measured after 1 to 24 hrs by Western blot analysis; assay type: cell-based; details: time 1-24 hrs
[35] = biological target: T4, Protein cereblon/Bromodomain-containing protein 2 (Homo sapiens); test: PROTAC activity at CRBN/BRD2 in human MM1.S cells assessed as induction of protein degradation at 1 uM measured around 1 to 3 hrs by Western blot analysis; assay type: cell-based; details: time 1-3 hrs
[36] = biological target: T2, Protein cereblon/Bromodomain-containing protein 4 (Homo sapiens); test: PROTAC activity at CRBN/BRD4-L in human HGC-27 cells assessed as induction of protein degradation at 1 uM measured around 1 to 3 hrs by Western blot analysis; assay type: cell-based; details: time 1-3 hrs
[37] = biological target: T4, Protein cereblon/Bromodomain-containing protein 2 (Homo sapiens); test: PROTAC activity at CRBN/BRD2 in human MM1.S cells assessed as induction of protein degradation at 1 uM measured after 1 to 24 hrs by Western blot analysis; assay type: cell-based; details: time 1-24 hrs
[38] = biological target: T4, Protein cereblon/Bromodomain-containing protein 2 (Homo sapiens); test: PROTAC activity at CRBN/BRD2 in human HGC-27 cells assessed as induction of protein degradation at 1 uM measured around 1 to 3 hrs by Western blot analysis; assay type: cell-based; details: time 1-3 hrs
[39] = biological target: T2, Protein cereblon/Bromodomain-containing protein 4 (Homo sapiens); test: PROTAC activity at CRBN/BRD4-L in human MM1.S cells assessed as induction of protein degradation at 1 uM measured after 1 to 24 hrs by Western blot analysis; assay type: cell-based; details: time 1-24 hrs

Cc1nnc2n1-c1ccc(-c3ccc(CNCCCCCCCc4cccc5c4CN(C4CCC(=O)NC4=O)C5=O)cc3)cc1C(Nc1ccc(Cl)cc1)CC2 (centres undefined)
pKi [1]: 8.10
Activity [2]: Active
Activity [3]: Active
pIC50 [4]: 9.12
pIC50 [5]: 7.56
pKi [6]: 8.65

Cc1nnc2n1-c1ccc(-c3cnn(CC(=O)NCCCCCC#Cc4cccc5c4CN(C4CCC(=O)NC4=O)C5=O)c3)cc1C(Nc1ccc(Cl)cc1)CC2 (centres undefined)
Activity [7]: inactive
pKi [1]: 7.48
Activity [8]: inactive
Activity [9]: inactive
pIC50 [4]: 6.75
Activity [10]: inactive
pIC50 [5]: 5.80
pKi [6]: 8.20

Cc1nnc2n1-c1ccc(-c3ccc(CNCCCCCC#Cc4cccc5c4CN(C4CCC(=O)NC4=O)C5=O)cc3)cc1C(Nc1ccc(Cl)cc1)CC2 (centres undefined)
pKi [1]: 7.82
Activity [2]: Active
Activity [3]: Active
pIC50 [4]: 7.70
pIC50 [5]: 6.81
pKi [6]: 8.23

Cc1nnc2n1-c1ccc(-c3cnn(CC(=O)NCCCCC#Cc4cccc5c4CN(C4CCC(=O)NC4=O)C5=O)c3)cc1C(Nc1ccc(Cl)cc1)CC2 (centres undefined)
Activity [7]: inactive
pKi [1]: 7.53
Activity [8]: inactive
Activity [9]: inactive
pIC50 [4]: 6.27
Activity [10]: inactive
pIC50 [5]: 5.27
pKi [6]: 8.18

Cc1nnc2n1-c1ccc(-c3cnn(CC(=O)NCCCC#Cc4cccc5c4CN(C4CCC(=O)NC4=O)C5=O)c3)cc1C(Nc1ccc(Cl)cc1)CC2 (centres undefined)
Activity [7]: inactive
pKi [1]: 7.42
Activity [8]: inactive
Activity [9]: inactive
pIC50 [4]: 5.53
Activity [10]: inactive
pIC50 [5]: 5.09
pKi [6]: 8.30

Cc1nnc2n1-c1ccc(-c3ccc(CNCCCCCc4cccc5c4CN(C4CCC(=O)NC4=O)C5=O)cc3)cc1C(Nc1ccc(Cl)cc1)CC2 (centres undefined)
pKi [1]: 7.81
Activity [2]: Active
Activity [3]: Active
pIC50 [4]: 6.63
pIC50 [5]: 6.09
pKi [6]: 8.27

Cc1sc2c(c1C)C(c1ccc(Cl)cc1)=N[C@@H](CC(=O)NCCCCNC(=O)COc1cccc3c1C(=O)N(C1CCC(=O)NC1=O)C3=O)c1nnc(C)n1-2 (some centres undefined)
Activity [11]: Active
Activity [12]: Active
Activity [13]: Active
Activity [14]: Active
Activity [15]: Active
Activity [16]: Active
Activity [17]: inactive
Activity [18]: Active
pIC50 [19]: 6.06
pKi [1]: 8.14
Activity [20]: Active
pIC50 [21]: 4.91
Activity [22]: Active
Activity [23]: Active
Activity [24]: Dose-Dependent Effect
Activity [25]: Dose-Dependent Effect
pIC50 [26]: 4.70
Activity [27]: Active
pIC50 [28]: 5.28
Activity [29]: Active
Activity [30]: Active
Activity [31]: Active
pIC50 [4]: 7.93
Activity [32]: Active
pIC50 [33]: 4.79
Activity [34]: Active
Activity [35]: Active
Activity [36]: Active
Activity [37]: Active
Activity [38]: Active
Activity [39]: Active
pIC50 [5]: 5.61
pKi [6]: 8.28

Cc1nnc2n1-c1ccc(-c3ccc(CNCC#Cc4cccc5c4CN(C4CCC(=O)NC4=O)C5=O)cc3)cc1C(Nc1ccc(Cl)cc1)CC2 (centres undefined)
pKi [1]: 7.61
pIC50 [4]: 6.16
pIC50 [5]: 5.58
pKi [6]: 8.32
